“And” between values parts separate entries of the source, which are not always exact repeats. Identical values can stand only once.
Target: T1, endogenous P2X4 channels (Homo sapiens, UniProt Q99571)
T1 construct: measure calcium influx through endogenous P2X4 channels into primary human monocytes
T1 sequence (Q99571 1-388): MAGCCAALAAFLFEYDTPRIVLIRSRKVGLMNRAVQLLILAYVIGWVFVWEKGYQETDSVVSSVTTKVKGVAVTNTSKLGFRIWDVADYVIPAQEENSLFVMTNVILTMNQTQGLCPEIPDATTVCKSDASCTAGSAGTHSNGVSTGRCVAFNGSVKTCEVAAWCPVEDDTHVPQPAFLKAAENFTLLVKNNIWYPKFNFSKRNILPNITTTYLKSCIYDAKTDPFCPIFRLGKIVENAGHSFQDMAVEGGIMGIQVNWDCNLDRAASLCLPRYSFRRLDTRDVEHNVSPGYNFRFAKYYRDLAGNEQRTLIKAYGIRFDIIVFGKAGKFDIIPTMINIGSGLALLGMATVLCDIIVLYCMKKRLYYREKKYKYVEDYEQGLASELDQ
Experiment: Human Monocyte P2X4 Assay (FLIPR)
Format: cell-based
Details: primary human monocytes, 3 μM BzATP, one value per donor
Experimental: The principle of the assay is to measure calcium influx through endogenous P2X4 channels into primary human monocytes, following activation by 2′,3′-O-(4-benzoyl-benzoyl)-ATP (Bz-ATP). Intracellular calcium concentration changes were measured with a Flipr® (Molecular Devices) device using a calcium sensitive dye (Fluo-8). In primary monocytes P2X4 is located at the lysosome membrane, therefore exocytosis has to be triggered to expose P2X4 at the cellular membrane.
Human peripheral blood mononuclear cells (PBMCs) from anticoagulated blood (blood cells, BC) were isolated via density gradient centrifugation. Whole blood was diluted 1:3 with PBS. Samples of 30 mL were layered carefully on top of 15 mL Biocoll (BIOCHROM) in 50 mL centrifuge tubes (Falcon). Tubes were centrifuged at 914×g for 25 min at RT without brake. The PBMC layer was removed with a 10 mL pipette and transferred into tubes with ice-cold PBS in a total volume of 50 mL. Cells were washed twice by pelleting at 300×g at 4° C., for 10 min and for 5 min respectively. PBMCs were re-suspended in 10 mL medium (X-vivo, Biozym Scientific) and counted in a Neubauer chamber.
Monocytes were isolated by negative selection using the Monocyte isolation kit II from Miltenyi (#130-091-153) according to the instructions. Isolation should be done fast and cells and solutions should be kept on ice at any time. PBMCs in batches of 10 exp8 cells were pelleted (300×g, 10 min) and re-suspended with 300 μL MACS buffer in a 50 mL Falcon tube. FcR Blocking reagent (100 μl) and Biotin-Ab (100 μl) were added, mixed and incubated on ice for 10 min. MACS buffer (300 μL) and anti-Biotin Micro-beads (100 μL) were added, mixed and incubated on ice for 15 min. Cells were washed by pelleting (300×g for 10 min) and re-suspended in 500 μL MACS buffer. For each batch one separation column was placed in the MACS separator and rinsed with 3 mL MACS buffer. The cell suspension was added to the column, followed by 3×3 mL MACS buffer for washing, and the eluent containing the monocytes was collected. Cells were pelleted (300×g for 10 min), re-suspended in X-vivo medium and counted. Monocytes were seeded into fibronectin-coated micro-plates (384-well, black, flat transparent bottom; Corning #3848) at a density of 30,000 cells/well in 50 μL, and cultivated over night (37° C., 5% CO2).
Test substances were dissolved in 100% DMSO at a stock concentration of 10 mM and stored at −20° C. in aliquots. Serial dilutions (2×) were prepared in DMSO and diluted 500× with assay buffer to generate the antagonist plate. In the Flipr measurement, 10 μL per well were transferred (4× dilution) and a final top concentrations of 5 μM and 0.05% DMSO were obtained in the assay. Agonist BzATP was stored at 10 mM in aliquots and diluted to an intermediate concentration of 15 μM to generate the agonist plate. In the Flipr measurement, 10 μL per well were transferred (5× dilution) so that a final assay concentration of 3 μM was obtained.
For the experiment, the medium of the cell plate was discarded manually and 70 μL/well loading buffer was added and incubated for 1 h (37° C., 5% CO2). Loading buffer contained HBSS (w/o calcium/magnesium), 10 mM Hepes pH 7.4, 5 μM Fluo-8 (AM) (Tebu-bio) and 50 mM methylamine (Sigma) to trigger exocytosis. Loading buffer was discarded manually and 30 μL/well low-calcium assay buffer (5 mM KCl, 145 mM NaCl, 0.5 mM CaCl2, 13 mM glucose, 10 mM Hepes pH 7.4) was added. The antagonist plate was transferred (10 μL/well) and after 15 min at RT the agonist plate (10 μL/well) was transferred.
Agonist addition was recorded for 240 seconds after a 10 second baseline. For analysis, a baseline correction was applied, and the maximum of the curve was extracted. Data were normalized towards 0% inhibition (signal at 3 μM BzATP) and 100% inhibition (absence of BzATP stimulation) and fitted with a four-parameter sigmoidal inhibition curve using Prism GraphPad to obtain IC50 values.

Human P2X4 Monocytes (FLIPR Assay) Efficacy for different donors: 81% and 78%
Structure (SMILES): N#Cc1cnn(-c2ccc(NC(=O)Cc3ccccc3Cl)cc2S(N)(=O)=O)c1 [Example 39, 2-(2-Chlorophenyl)-N-[4-(4-cyano-1H-pyrazol-1-yl)-3-sulfamoylphenyl]acetamide]

Source: patent publication US11524938B2, “Aromatic sulfonamide derivatives” (Bayer Pharma Aktiengesellschaft, priority 2016, dated 2022)
